Tests used:
[1] = biological target: T1, Alpha-1A adrenergic receptor (Homo sapiens, UniProt P35348); test: Agonist activity at human cloned adrenergic alpha-1A receptor expressed in CHO cells assessed as calcium mobilization by FLIPR; assay type: functional, cell-based
T1 sequence (P35348 whole entry): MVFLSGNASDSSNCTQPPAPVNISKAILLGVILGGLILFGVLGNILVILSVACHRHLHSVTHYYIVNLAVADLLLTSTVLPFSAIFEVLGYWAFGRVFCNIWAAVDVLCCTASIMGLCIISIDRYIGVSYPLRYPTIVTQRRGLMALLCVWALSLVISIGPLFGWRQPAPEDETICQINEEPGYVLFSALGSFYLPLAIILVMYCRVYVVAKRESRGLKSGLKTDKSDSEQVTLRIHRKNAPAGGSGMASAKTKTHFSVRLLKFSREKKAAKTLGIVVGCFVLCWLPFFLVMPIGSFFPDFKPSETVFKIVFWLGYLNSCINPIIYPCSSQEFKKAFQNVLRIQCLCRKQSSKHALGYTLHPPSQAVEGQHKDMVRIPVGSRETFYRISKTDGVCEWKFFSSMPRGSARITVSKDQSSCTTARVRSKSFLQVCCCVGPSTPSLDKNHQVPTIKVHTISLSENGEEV

[2] = biological target: T2, Alpha-1A adrenergic receptor (Homo sapiens) (UniProt P35348); test: Agonist activity at human cloned adrenergic alpha-1A receptor expressed in CHO cells assessed as calcium mobilization by FLIPR relative to phenylephrine; assay type: functional, cell-based
T2 sequence (whole entry): T1 sequence (P35348 whole entry)

[3] = biological target: T3, Alpha-1B adrenergic receptor (Homo sapiens, UniProt P35368); test: Agonist activity at human cloned adrenergic alpha-1B receptor expressed in CHO cells assessed as calcium mobilization by FLIPR; assay type: functional, cell-based
T3 sequence (P35368 whole entry): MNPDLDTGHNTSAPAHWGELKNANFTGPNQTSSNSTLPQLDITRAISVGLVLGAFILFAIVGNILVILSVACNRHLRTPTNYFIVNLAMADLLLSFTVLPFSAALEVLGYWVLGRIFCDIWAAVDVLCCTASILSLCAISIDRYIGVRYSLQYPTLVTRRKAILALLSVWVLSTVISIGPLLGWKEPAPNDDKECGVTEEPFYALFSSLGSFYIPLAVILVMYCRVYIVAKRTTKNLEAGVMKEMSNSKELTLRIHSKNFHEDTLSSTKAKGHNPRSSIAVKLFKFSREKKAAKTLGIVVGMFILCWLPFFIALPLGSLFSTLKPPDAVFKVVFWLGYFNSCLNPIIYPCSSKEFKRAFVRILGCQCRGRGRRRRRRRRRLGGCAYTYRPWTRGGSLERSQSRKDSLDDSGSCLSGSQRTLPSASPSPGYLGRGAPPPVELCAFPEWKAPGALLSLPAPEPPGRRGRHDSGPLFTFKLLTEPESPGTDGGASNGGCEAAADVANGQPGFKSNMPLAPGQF

[4] = biological target: T4, Alpha-1D adrenergic receptor (Homo sapiens, UniProt P25100); test: Agonist activity at human cloned adrenergic Alpha-1D receptor expressed in CHO cells assessed as calcium mobilization by FLIPR; assay type: functional, cell-based
T4 sequence (P25100 whole entry): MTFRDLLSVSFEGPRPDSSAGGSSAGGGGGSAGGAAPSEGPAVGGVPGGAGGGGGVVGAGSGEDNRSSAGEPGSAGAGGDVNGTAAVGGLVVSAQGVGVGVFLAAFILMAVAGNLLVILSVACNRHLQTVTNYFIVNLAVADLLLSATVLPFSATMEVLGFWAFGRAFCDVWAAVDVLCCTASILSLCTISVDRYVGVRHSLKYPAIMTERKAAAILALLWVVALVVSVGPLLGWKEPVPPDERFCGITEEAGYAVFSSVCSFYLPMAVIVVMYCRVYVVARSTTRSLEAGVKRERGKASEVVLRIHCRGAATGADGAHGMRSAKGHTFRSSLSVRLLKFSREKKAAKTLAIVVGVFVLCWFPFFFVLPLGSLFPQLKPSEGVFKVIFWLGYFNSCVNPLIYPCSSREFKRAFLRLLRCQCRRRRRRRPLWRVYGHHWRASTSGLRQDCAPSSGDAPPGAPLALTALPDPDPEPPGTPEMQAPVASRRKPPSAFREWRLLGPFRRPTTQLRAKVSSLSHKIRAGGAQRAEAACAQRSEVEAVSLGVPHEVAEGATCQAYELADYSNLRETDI

[5] = biological target: T5, Alpha-2A adrenergic receptor (Homo sapiens, UniProt P08913); test: Agonist activity at human cloned adrenergic alpha-2A receptor expressed in CHOK1 cells by beta-lactamase reporter gene assay; assay type: functional, cell-based, CHO-K1
T5 sequence (P08913 whole entry): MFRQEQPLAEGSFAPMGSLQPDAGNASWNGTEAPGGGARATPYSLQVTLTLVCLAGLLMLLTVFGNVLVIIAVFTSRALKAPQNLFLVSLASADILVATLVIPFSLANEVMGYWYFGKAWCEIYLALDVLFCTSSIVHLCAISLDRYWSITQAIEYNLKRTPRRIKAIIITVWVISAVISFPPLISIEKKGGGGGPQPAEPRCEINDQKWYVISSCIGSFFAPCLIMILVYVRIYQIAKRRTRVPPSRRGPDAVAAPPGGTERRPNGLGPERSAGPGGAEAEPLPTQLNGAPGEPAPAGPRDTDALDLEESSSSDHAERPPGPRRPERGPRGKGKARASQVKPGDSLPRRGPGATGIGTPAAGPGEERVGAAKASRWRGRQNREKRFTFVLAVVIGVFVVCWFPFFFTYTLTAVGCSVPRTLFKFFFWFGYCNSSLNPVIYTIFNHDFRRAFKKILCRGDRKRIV

[6] = biological target: T6, Alpha-1B adrenergic receptor (Homo sapiens) (UniProt P35368); test: Agonist activity at human cloned adrenergic Alpha-1B receptor expressed in CHO cells assessed as calcium mobilization by FLIPR relative to phenylephrine; assay type: functional, cell-based
T6 sequence (whole entry): T3 sequence (P35368 whole entry)

[7] = biological target: T7, Alpha-1D adrenergic receptor (Homo sapiens) (UniProt P25100); test: Agonist activity at human cloned adrenergic Alpha-1D receptor expressed in CHO cells assessed as calcium mobilization by FLIPR relative to phenylephrine; assay type: functional, cell-based
T7 sequence (whole entry): T4 sequence (P25100 whole entry)

[8] = biological target: T8, Alpha-2A adrenergic receptor (Homo sapiens) (UniProt P08913); test: Agonist activity at human cloned adrenergic alpha-2A receptor expressed in CHOK1 cells by beta-lactamase reporter gene assay relative to dexmeditomidine; assay type: functional, cell-based; conditions: CHO-K1
T8 sequence (whole entry): T5 sequence (P08913 whole entry)

| Structure (SMILES) | EC50 [1] [nM] | Emax [2] [%] | EC50 [3] [µM] | EC50 [4] [µM] | EC50 [5] [µM] | Emax [6] [%] | Emax [7] [%] | Emax [8] [%] | EC50 ([3]; cho) [µM] | EC50 ([4]; cho) [µM] | EC50 ([5]; cho-k1) [µM] |
| --- | --- | --- | --- | --- | --- | --- | --- | --- | --- | --- | --- |
| CCS(=O)(=O)Nc1cccc(Cc2c[nH]cn2)c1 | 9 | 96 | > 10 | > 10 | > 10 | – | – | – | – | – | – |
| CS(=O)(=O)Nc1cccc2c1CCCC2c1ncc[nH]1 (stereo in doubt; 17a) [listing 1 of 2 here] | – | 79 | – | – | – | – | – | – | – | – | – |
| CS(=O)(=O)Nc1cccc2c1CCCC2c1ncc[nH]1 (stereo in doubt; 17b) [listing 1 of 2 here] | 2150 | – | > 10 | > 10 | > 10 | – | – | – | – | – | – |
| c1ccc2c(c1)CCC2c1ncc[nH]1 (stereo not drawn) | 473 | 54 | > 10 | > 10 | – | – | – | – | – | – | – |
| Cn1cc(-c2cccc3c2CCC3c2ncc[nH]2)cn1 (stereo not drawn) | > 2900 | 12 | > 10 | > 10 | > 10 | – | – | – | – | – | – |
| c1cc(-c2ccn[nH]2)c2c(c1)C(c1ncc[nH]1)CC2 (stereo not drawn) | – | 83 | – | – | – | 32 | 57 | – | – | – | – |
| CS(=O)(=O)Nc1cccc2c1CCCC2c1ncc[nH]1 (stereo in doubt; 17b) [listing 2 of 2 here] | – | 47 | – | – | – | – | – | – | – | – | – |
| CNC(=O)c1cccc2c1CCC2c1ncc[nH]1 (stereo not drawn) | 2200 | 59 | > 10 | > 10 | 4.34 | – | – | 44 | – | – | – |
| COc1cccc2c1CCC2c1ncc[nH]1 (stereo not drawn) | 32 | 65 | > 10 | > 10 | 0.027 | – | – | 100 | – | – | – |
| CCCS(=O)(=O)Nc1cccc2c1CCC2c1ncc[nH]1 (stereo not drawn) | 1340 | 54 | > 10 | > 10 | – | – | – | – | – | – | – |
| c1ccc(-c2cccc3c2CCC3c2ncc[nH]2)nc1 (stereo not drawn) | 1150 | 53 | > 10 | > 10 | > 10 | – | – | – | – | – | – |
| c1cncc(-c2cccc3c2CCC3c2ncc[nH]2)c1 (stereo not drawn) | 2060 | 36 | > 10 | > 10 | 4.58 | – | – | 25 | – | – | – |
| c1cc(-c2ncco2)c2c(c1)C(c1ncc[nH]1)CC2 (stereo not drawn) | 170 | 63 | > 10 | 1.39 | > 10 | – | 38 | – | – | – | – |
| COc1c(Cl)ccc2c1CCC2c1ncc[nH]1 (stereo not drawn) | 451 | 24 | > 10 | > 10 | – | – | – | – | – | – | – |
| Cn1ccc(-c2cccc3c2CCC3c2ncc[nH]2)n1 (stereo not drawn) | > 1300 | 19 | > 10 | > 10 | > 10 | – | – | – | – | – | – |
| CS(=O)(=O)Nc1cccc2c1CCC2c1ncc[nH]1 (stereo not drawn) | 70 | 87 | > 10 | > 10 | > 10 | – | – | – | – | – | – |
| c1cc(-c2nccs2)c2c(c1)C(c1ncc[nH]1)CC2 (stereo not drawn) | 426 | 64 | > 10 | 3.19 | > 10 | – | 27 | – | – | – | – |

| Structure (SMILES) | EC50 [1] [nM] | Emax [2] [%] | EC50 [3] [µM] | EC50 [4] [µM] | EC50 [5] [µM] | Emax [6] [%] | Emax [7] [%] | Emax [8] [%] | EC50 ([3]; cho) [µM] | EC50 ([4]; cho) [µM] | EC50 ([5]; cho-k1) [µM] |
| --- | --- | --- | --- | --- | --- | --- | --- | --- | --- | --- | --- |
| CCS(=O)(=O)Nc1cccc2c1CCC2c1ncc[nH]1 (stereo not drawn) | 32 | 86 | > 10 | > 10 | > 10 | – | – | – | – | – | – |
| Cc1n[nH]cc1-c1cccc2c1CCC2c1ncc[nH]1 (stereo not drawn) | – | 91 | – | – | – | 14 | 66 | – | – | – | – |
| CS(=O)(=O)Nc1cccc2c1CCCC2c1ncc[nH]1 (stereo in doubt; 17) [listing 1 of 2 here] | – | 79 | – | – | – | – | – | – | – | – | – |
| Clc1ccc2c(c1-c1cn[nH]c1)CCC2c1ncc[nH]1 (stereo not drawn) | 78 | – | > 10 | > 10 | > 10 | – | – | – | – | – | – |
| Cc1ccc2c(c1NS(C)(=O)=O)CCC2c1ncc[nH]1 (stereo not drawn) | 33 | 83 | > 10 | > 10 | – | – | – | – | – | – | – |
| Cc1[nH]ncc1-c1cccc2c1CCC2c1ncc[nH]1 (stereo not drawn) | 3 | – | 0.902 | 0.634 | > 10 | – | – | – | – | – | – |
| Cn1nccc1-c1cccc2c1CCC2c1ncc[nH]1 (stereo not drawn) | 278 | 58 | > 10 | > 10 | > 10 | – | – | – | – | – | – |
| c1ccc2c(c1)CCCC2c1ncc[nH]1 (stereo not drawn) | 385 | 71 | 0.791 | 0.364 | 0.722 | 58 | 74 | 105 | – | – | – |
| c1cc(-c2cn[nH]c2)c2c(c1)C(c1ncc[nH]1)CC2 (stereo not drawn) | 14 | 84 | > 10 | 0.319 | > 10 | – | 52 | – | – | – | – |
| Clc1ccc2c(c1-c1ccn[nH]1)CCC2c1ncc[nH]1 (stereo not drawn) | 322 | 40 | > 10 | > 10 | > 10 | – | – | – | – | – | – |
| Cc1oncc1-c1cccc2c1CCC2c1ncc[nH]1 (stereo not drawn) | 111 | 63 | > 10 | > 10 | > 10 | – | – | – | – | – | – |
| CS(=O)(=O)Nc1cccc2c1CCCC2c1ncc[nH]1 (stereo in doubt; 17) [listing 2 of 2 here] | 234 | – | – | – | – | – | – | – | > 10 | > 10 | > 10 |
| CS(=O)(=O)Nc1cccc2c1CCCC2c1ncc[nH]1 (stereo in doubt; 17a) [listing 2 of 2 here] | 142 | – | – | – | – | – | – | – | > 10 | > 10 | > 10 |
| COc1c(C)ccc2c1CCC2c1ncc[nH]1 (stereo not drawn) | 167 | 40 | > 10 | > 10 | 0.327 | – | – | 89 | – | – | – |
| c1cc(-c2cc[nH]n2)c2c(c1)C(c1ncc[nH]1)CC2 (stereo not drawn) | 52 | – | 0.6 | 0.336 | > 10 | – | – | – | – | – | – |
| Cc1c(OCC2=NCCN2)ccc(Cl)c1NS(C)(=O)=O [DABUZALGRON] | – | 60 | > 10 | > 10 | > 10 | – | – | – | – | – | – |
